Measurements from US7485641B2, “Substituted 3-amino-pyrrolidino-4-lactams” (Pfizer, Inc., priority 2006, dated 2009).
Counter-ions that a name gives are not always drawn.

Target: T1, DPP-IV (Homo sapiens, UniProt P27487)
T1 construct: purchased Enzyme Systems Products SPE-01
Test: In vitro assay for dipeptidyl peptidase inhibition
Type: biochemical
Conditions: Examples 156-162; n-value in brackets; IC50's or percent inhibition at 300 nM; read-out: DPP-IV inhibition

T1 sequence (P27487 whole entry, species assumed): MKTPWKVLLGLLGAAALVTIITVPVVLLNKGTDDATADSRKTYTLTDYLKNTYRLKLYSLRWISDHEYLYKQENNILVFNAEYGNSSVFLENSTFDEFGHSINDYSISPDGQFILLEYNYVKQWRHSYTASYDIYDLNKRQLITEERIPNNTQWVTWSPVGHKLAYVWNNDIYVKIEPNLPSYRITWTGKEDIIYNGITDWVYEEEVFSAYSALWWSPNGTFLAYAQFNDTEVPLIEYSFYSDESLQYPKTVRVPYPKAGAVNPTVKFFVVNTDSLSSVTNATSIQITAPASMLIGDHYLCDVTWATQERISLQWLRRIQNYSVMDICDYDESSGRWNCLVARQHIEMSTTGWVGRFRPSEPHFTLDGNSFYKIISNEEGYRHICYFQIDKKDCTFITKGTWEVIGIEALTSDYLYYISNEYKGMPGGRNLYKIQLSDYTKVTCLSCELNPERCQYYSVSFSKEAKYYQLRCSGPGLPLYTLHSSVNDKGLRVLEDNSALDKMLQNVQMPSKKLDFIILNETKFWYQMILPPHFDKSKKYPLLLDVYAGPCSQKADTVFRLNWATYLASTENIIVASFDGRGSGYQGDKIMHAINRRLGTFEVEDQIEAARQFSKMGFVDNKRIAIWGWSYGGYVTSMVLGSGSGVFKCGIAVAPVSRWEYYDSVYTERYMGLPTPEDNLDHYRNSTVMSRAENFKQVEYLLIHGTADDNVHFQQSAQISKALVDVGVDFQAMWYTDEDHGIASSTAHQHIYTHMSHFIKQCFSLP

| IC50 [nM] | Molecule |
| --- | --- |
| 1460 | COc1ccc2[nH]c(C(=O)N3C[C@H](N)[C@@H](N4CCCCC4=O)C3)cc2c1 [Example 162, 1-[(3S,4S)-4-Amino-1-(5-methoxy-1H-indole-2-carbonyl)-pyrrolidin-3-yl]-piperidin-2-onehydrochloride] |
| 231 | N[C@H]1CN(C(=O)c2cc3ccc(Cl)cc3o2)C[C@@H]1N1CCCCC1=O [Example 158, 1-((3S,4S)-4-amino-1-(6-chlorobenzofuran-2-carbonyl)pyrrolidin-3-yl)piperidin-2-onetrifluoroacetate] |

Same assay, conditions: at 300 nM; n-value given in brackets

| Molecule | DPP-IV Percent Inhibition at 300 nM |
| --- | --- |
| CCOc1ncc2c(n1)CCN(c1ncnc(N3C[C@H](N)[C@@H](N4CCCCC4=O)C3)n1)C2.O=C(O)C(F)(F)F [Example 72, 1-((3S,4S)-4-Amino-1-(4-(2-ethoxy-7,8-dihydropyrido[4,3-d]pyrimidin-6(5H)-yl)-1,3,5-triazin-2-yl)pyrrolidin-3-yl)piperidin-2-onetrifluoroacetate] | 13.1%(4) |
| COC1(C)CCN(c2ncnc(N3C[C@H](N)[C@@H](N4CCCCC4=O)C3)n2)CC1.O=C(O)C(F)(F)F [Example 36, 1-((3S,4S)-4-Amino-1-(4-(4-methoxy-4-methylpiperidin-1-yl)-1,3,5-triazin-2-yl)pyrrolidin-3-yl)piperidin-2-onetrifluoroacetate] | 22.2%(4) |
| N[C@H]1CN(c2ncnc3cc(OS(=O)(=O)c4ccc(F)cc4)ccc23)C[C@@H]1N1CCCCC1=O [Example 142, 4-Fluoro-benzenesulfonic acid 4-[(3S,4S)-3-amino-4-(2-oxo-piperidin-1-yl)-pyrrolidin-1-yl]-quinazolin-7-ylester] | 47/3%(4) |

Same assay, conditions: at 300 nM; n-value given in brackets; read-out: DPP-IV Percent Inhibition at 300 nM

| inhibition at 0.3 µM [%] | Molecule |
| --- | --- |
| 6.8 | CC1(C)CN(c2ncnc(N3C[C@H](N)[C@@H](N4CCCCC4=O)C3)n2)CC1(C)C [Example 46, 1-((3S,4S)-4-amino-1-(4-(3,3,4,4-tetramethylpyrrolidin-1-yl)-1,3,5-triazin-2-yl)pyrrolidin-3-yl)piperidin-2-one] |

Same assay, conditions: n-value given in brackets; read-out: DPP-IV IC50

| IC50 [nM] | Molecule |
| --- | --- |
| 1740 | N[C@H]1CN(c2cc(N3CC(F)C3)ncn2)C[C@@H]1N1CCCC1=O [Example 48, 1-((3S,4S)-4-Amino-1-(6-(3-fluoroazetidin-1-yl)pyrimidin-4-yl)pyrrolidin-3-yl)pyrrolidin-2-onedihydrochloride] |
| 113 | N[C@H]1CN(c2ncnc3cc(O)ccc23)C[C@@H]1N1CCCCC1=O [Example 123, 1-((3S,4S)-4-amino-1-(7-hydroxyquinazolin-4-yl)pyrrolidin-3-yl)piperidin-2-one trifluoroacetate] |
| 133 | COc1nc(OC)nc(N2C[C@H](N)[C@@H](N3CCCCC3=O)C2)n1 [Example 147, 1-[(3S,4S)-4-Amino-1-(4,6-dimethoxy-[1,3,5]triazin-2-yl)-pyrrolidin-3-yl]-piperidin-2-onetrifluoroacetate] |
| 110 | N[C@H]1CN(c2ncnc3c(F)cccc23)C[C@@H]1N1CCCCC1=O [Example 109, 1-((3S,4S)-Amino-1-(8-fluoroquinazolin-4-yl)pyrrolidin-3-yl)piperidin-2-one trifluoroacetate] |
| 189 | N[C@H]1CN(c2ncnc3c2ncn3C2CC2)C[C@@H]1N1CCCCC1=O [Example 150, 1-[(3S,4S)-4-Amino-1-(9-cyclopropyl-9H-purin-6-yl)-pyrrolidin-3-yl]-piperidin-2-one hydrochloride] |
| 107 | N[C@H]1CN(c2ncnc3cc(OC4CCCC4)ccc23)C[C@@H]1N1CCCCC1=O [Example 119, 1-((3S,4S)-4-amino-1-(7-(cyclopentyloxy)quinazolin-4-yl)pyrrolidin-3-yl)piperidin-2-one] |
| 92.2 | 1-((3S,4S)-4-Amino-1-(4-((R)-3-fluoropyrrolidin-1-yl)-1,3,5-triazin-2-yl)pyrrolidin-3-yl)piperidin-2-onetrifluoroacetate [Example 27] |
| 74.2 | N[C@H]1CN(c2cc(NC3CC3)ncn2)C[C@@H]1N1CCCCC1=O [Example 73, 1-[(3S,4S)-4-Amino-1-(6-cyclopropylamino-pyrimidin-4-yl)-pyrrolidin-3-yl]-piperidin-2-onedihydrochloride] |
| 11.6 | CNS(=O)(=O)c1cccc2c1CCN(c1ncnc(N3C[C@H](N)[C@@H](N4CCCCC4=O)C3)n1)C2 [Example 58, 2-(4-((3S,4S)-3-Amino-4-(2-oxopiperidin-1-yl)pyrrolidin-1-yl)-1,3,5-triazin-2-yl)-N-methyl-1,2,3,4-tetrahydroisoquinoline-5-sulfonamidetrifluoroacetate] |
| 82.5 | CCSc1nc(N2C[C@H](N)[C@@H](N3CCCCC3=O)C2)cc(N2CCC(F)(F)C2)n1 [Example 20, 1-((3S,4S)-4-amino-1-(6-(3,3-difluoropyrrolidin-1-yl)-2-(ethylthio)pyrimidin-4-yl)pyrrolidin-3-yl)piperidin-2-one] |
| 28.8 | N[C@H]1CN(c2cc(-c3ccccc3)ncn2)C[C@@H]1N1CC(F)(F)CCC1=O [Example 82, 1-((3S,4S)-4-amino-1-(6-phenylpyrimidin-4-yl)pyrrolidin-3-yl)-5,5-difluoropiperidin-2-one trifluoroacetate] |
| 97.7 | Cc1nc(N2C[C@H](N)[C@@H](N3CC(F)(F)CCC3=O)C2)cc(N2CCCC(F)(F)C2)n1 [Example 33, 1-((3S,4S)-4-amino-1-(6-(3,3-difluoropiperidin-1-yl)-2-methylpyrimidin-4-yl)pyrrolidin-3-yl)-5,5-difluoropiperidin-2-onetrifluoroacetate] |
| 37.4 | N[C@H]1CN(c2ncnc(N3CCC(F)(F)C3)n2)C[C@@H]1N1CCCCC1=O [Example 11, 1-{(3S,4S)-4-Amino-1-[4-(3,3-difluoro-pyrrolidin-1-yl)-[1,3,5]triazin-2-yl]-pyrrolidin-3-yl}-piperidin-2-onedihydrochloride] |
| 66.8 | CC(C)(O)c1ccc2c(N3C[C@H](N)[C@@H](N4CCCCC4=O)C3)ncnc2c1 [Example 126, 1-((3S,4S)-4-amino-1-(7-(2-hydroxypropan-2-yl)quinazolin-4-yl)pyrrolidin-3-yl)piperidin-2-one] |
| 497 | N[C@H]1CN(c2ncnc3c2ncn3CC(F)(F)F)C[C@@H]1N1CCCCC1=O [Example 149, 1-{(2S,4S)-4-Amino-1-[9-(2,2,2-trifluoro-ethyl)-9H-purin-6-yl]-pyrrolidin-3-yl}-piperidin-2-onehydrochloride] |
| 122 | N[C@H]1CN(c2ncnc3cc(Oc4ccccc4)ccc23)C[C@@H]1N1CC(F)(F)CCC1=O [Example 101, 1-((3S,4S)-4-amino-1-(7-phenoxyquinazolin-4-yl)pyrrolidin-3-yl)-5,5-difluoropiperidin-2-one] |
| 316 | CC1(O)CCN(c2ncnc(N3C[C@H](N)[C@@H](N4CCCCC4=O)C3)n2)C1 (stereo partly drawn) [Example 44, 1-((3S,4S)-4-amino-1-(4-(3-hydroxy-3-methylpyrrolidin-1-yl)-1,3,5-triazin-2-yl)pyrrolidin-3-yl)piperidin-2-onetrifluoroacetate] |
| 280 | N[C@H]1CN(c2ncnc3cc(OS(=O)(=O)c4ccc(F)cc4F)ccc23)C[C@@H]1N1CCCCC1=O [Example 143, 4-((3S,4S)-3-amino-4-(2-oxopiperidin-1-yl)pyrrolidin-1-yl)quinazolin-7-yl 2,4-difluorobenzenesulfonate] |
| 33.9 | Cc1nc(-c2ccccc2)cc(N2C[C@H](N)[C@@H](N3CC(F)(F)CCC3=O)C2)n1 [Example 83, 1-((3S,4S)-4-amino-1-(2-methyl-6-phenylpyrimidin-4-yl)pyrrolidin-3-yl)-5,5-difluoropiperidin-2-one] |
| 72.5 | N[C@H]1CN(c2ncnc3cc(Oc4ccccc4)ccc23)C[C@@H]1N1CCCCC1=O [Example 113, 1-((3S,4S)-4-amino-1-(7-phenoxyquinazolin-4-yl)pyrrolidin-3-yl)piperidin-2-one] |
| 488 | N[C@H]1CN(c2cc(-c3ccccc3)ncn2)C[C@@H]1N1CCCC1=O [Example 6, 1-((3S,4S)-4-Amino-1-(6-phenylpyrimidin-4-yl)pyrrolidin-3-yl)pyrrolidin-2-one dihydrochloride] |
| 109 | N[C@H]1CN(c2cc(N3CCC(F)(F)C3)nc(C3CC3)n2)C[C@@H]1N1CCCCC1=O [Example 17, 1-((3S,4S)-4-amino-1-(2-cyclopropyl-6-(3,3-difluoropyrrolidin-1-yl)pyrimidin-4-yl)pyrrolidin-3-yl)piperidin-2-one] |
| 79.8 | N[C@H]1CN(c2ncnc3cc(Oc4cccc(F)c4)ccc23)C[C@@H]1N1CCCCC1=O [Example 120, 1-((3S,4S)-4-amino-1-(7-(3-fluorophenoxy)quinazolin-4-yl)pyrrolidin-3-yl)piperidin-2-oneformate] |
| 55.9 | CC(C)c1ccc2c(N3C[C@H](N)[C@@H](N4CCCCC4=O)C3)ncnc2c1 [Example 116, 1-((3S,4S)-4-amino-1-(7-isopropylquinazolin-4-yl)pyrrolidin-3-yl)piperidin-2-one] |
| 2480 | N[C@H]1CN(c2cc(N3CCc4nc[nH]c4C3)ncn2)C[C@@H]1N1CCCC1=O [Example 64, 1-((3S,4S)-4-Amino-1-(6-(6,7-dihydro-3H-imidazo[4,5-c]pyridin-5(4H)-yl)pyrimidin-4-yl)pyrrolidin-3-yl)pyrrolidin-2-onedihydrochloride] |
| 228 | N[C@H]1CN(c2ncnc3cc(C4CCCC4)ccc23)C[C@@H]1N1CCCCC1=O [Example 111, 1-((3S,4S)-4-amino-1-(7-cyclopentylquinazolin-4-yl)pyrrolidin-3-yl)piperidin-2-one] |

| Molecule | IC50 [nM] |
| --- | --- |
| N[C@H]1CN(c2ncnc(N3CCCC3)n2)C[C@@H]1N1CCCCC1=O [Example 32, 1-((3S,4S)-4-Amino-1-(4-(pyrrolidin-1-yl)-1,3,5-triazin-2-yl)pyrrolidin-3-yl)piperidin-2-onetrifluoroacetate] | 91.5 |
| 1-((3S,4S)-4-Amino-1-(6-(pyrrolidin-1-yl)pyrimidin-4-yl)pyrrolidin-3-yl)pyrrolidin-2-one(dihydrochloride) [Example 31] | 483 |
